Measured values reported in article PMC11963559, “Identification of novel thiazole derivatives as flaviviral protease inhibitors effective against Dengue (DENV2) and Japanese encephalitis viruses” (Antimicrobial Agents and Chemotherapy, 2025).

Columns and labels:
BHK-21 cells = test: MTT cytotoxicity assay in BHK-21 cells; type: cell-based, hamster; details: 24 h
Experimental: (§1) First, cytotoxic impact of these compounds was evaluated using MTT assay. […] Subsequently, we evaluated the effectiveness of these compounds in inhibiting DENV2 replication. BHK-21 cells were infected with the virus in presence of increasing concentration of these compounds, and harvested at 24 hpi. The virus replication rate was assessed by quantifying the copy number of viral genomic RNA using quantitative real-time PCR (qRT-PCR).
(§2) The MTT assay was performed to determine cellular metabolic activity as an indicator of cell viability, proliferation, and cytotoxicity. Thus, to determine whether these compounds had any toxic effects on cellular viability, an MTT assay was performed following the protocol described previously by Mosmann (1983) ([55], [56]). Briefly, BHK-21 and SH-SHY5Y cells were seeded into 96-well plates at a density of 20,000 cells/well. Almost 16–18 h later, the cells were treated with different concentrations of the compounds (3au and 3aq) for 24 h at 37 °C in 5% CO2. Thereafter, the medium was aspirated, and 100 µL of MTT reagent (5 mg/mL, SRL) in PBS was added to the cells and incubated for 3 h at 37 °C. Formazan crystals were formed in each well and resuspended in 100 µL of dimethyl sulfoxide (DMSO) (Sigma, USA) at room temperature for 20 min to completely dissolve the crystals. The absorbance of the solution in a 96-well plate was measured at 595 nm using a microplate reader (Epoch 2; BioTek Instruments). Each experiment was performed in triplicate, and the percentage of cell viability was determined as the ratio of the absorbance values of the experimental samples to the control solvent (DMSO) on the same plate.

[1] = MTT cytotoxicity assay in BHK-21 cells; type: cell-based, hamster; details: hamster
Experimental: as §1, §2

JEV = test: Time course of JEV genomic RNA accumulation in BHK-21 cells (qRT-PCR); type: cell-based; details: JEV MOI 0.1, BHK-21, 10 µM; for effect on viral genomic RNA abundance at early time points: 1 and 9 hpi; for effect on viral genomic RNA abundance at later time point: 18 hpi
Excerpt: This is because the initial translation of the viral RNA genome leads to the production of a viral polyprotein, which upon processing by the NS2B–NS3 protease, leads to the generation of viral RdRp (NS5) and other NS proteins necessary for RNA synthesis ([15]). Thus, inhibition of the NS2B–NS3 protease by the two potential compounds should affect viral genomic RNA accumulation within infected cells only at later time points post-infection ([46]). To validate this hypothesis, we assessed the effect of the compounds upon dynamic accumulation of viral RNA at different times of post-infection. Cells were infected with the virus in the absence or presence of 3aq or 3au (10 µM) and harvested at different time points post-infection, and viral genomic RNA copies were estimated using qRT-PCR. […] As expected, the abundance of viral genomic RNA remained low at the early time points of infection (1 and 9 hpi) and subsequently peaked at 18 hpi (Fig. 9B). […] This is an indirect effect of NS2B–NS3 protease inhibition, which in turn blocks polyprotein processing and assembly of the viral RNA synthesis machinery.
Fig 9 Detailed molecular mechanism of the inhibitory action of the compounds. (A and B) BHK-21 cells were infected with JEV virus (MOI = 0.1) for 1, 9, and 18 h with or without 10 µM of compounds. Total RNA extracted at indicated times was evaluated by qRT-PCR. The data are expressed as fold changes of the viral RNA levels normalized to GAPDH control relative to the corresponding DMSO treated samples at each time point. (B) Same experiment as in (A) but expressed as relative to the initial inoculation amount (at 1 hpi). BHK-21 cells were infected with JEV (MOI: 0.1) and treated with 3au (C) and 3aq (D) pre + during + post (−3), during + post (0), and post (3, 6, 9) infection. Viral RNA load were assessed at 24 hpi using qRT-PCR. The data are expressed as fold changes of the viral RNA levels normalized to GAPDH control relative to the corresponding DMSO-treated sample. Each experiment is performed in biological triplicate and repeated thrice. Statistical significance was analyzed by two-tailed equal variance Student’s t-test: *P < 0.05, **P < 0.01, ***P < 0.001, and ****P < 0.0001.
To quantify the viral RNA copy number, quantitative RT-PCR (qRT-PCR) was performed in duplicate using iTaq Universal SYBR Green Supermix (Bio-Rad). The cDNAs used for qPCR analysis were prepared using Power SYBR Green PCR Master Mix (Bio-Rad, #172–5125) in a QuantStudio5 Applied Biosystems real-time PCR system. […] Delta Ct for both control and compound-treated samples was determined and subsequently analyzed by determining the delta Ct to determine the mRNA expression of target genes in control vs treated samples.

| SMILES | non-toxic concentration (BHK-21 cells) | CC50 at 24 h [1] | effect on viral genomic RNA abundance at early time points (JEV) | effect on viral genomic RNA abundance at later time point (JEV) |
| --- | --- | --- | --- | --- |
| COc1ccc(-c2csc(N/N=C(\C)c3ccc(O)cc3)n2)cc1 [3aq] | up to 25 µM | 82 ± 2.38 µM | no effect | drastic effect |
| COc1ccc(-c2csc(N/N=C(\C)c3cc(O)cc(O)c3)n2)cc1 [3au] | up to 25 µM | 76.6 ± 2.74 µM | no effect | drastic effect |
